Consider ten molecules from ChEMBL document CHEMBL3588844, “Discovery of A-893, A New Cell-Active Benzoxazinone Inhibitor of Lysine Methyltransferase SMYD2” (ACS Med Chem Lett, 2015).

Assay [1] concerns the target N-lysine methyltransferase SMYD2 (Homo sapiens, UniProt Q9NRG4).
Assay [2] relates to A549. Description: Upregulation of p53 protein level in human A549 cells at 10 uM after 18 hrs relative to control. In kind it is functional.
Assay [3] deals with DNA (cytosine-5)-methyltransferase 1 (Homo sapiens) (UniProt P26358). Description: Inhibition of DNMT1 (unknown origin) assessed as incorporation of tritium labeled methyl group from [3H]-SAM to dsDNA substrate at 1 uM after 1 hr by scintillation proximity assay relative to control. (Scintillation proximity formats need no separation of bound from free tracer.)
Assay [4] concerns the target Histone-lysine N-methyltransferase, H3 lysine-79 specific (Homo sapiens) (UniProt Q8TEK3). Description: Inhibition of DOT1L (unknown origin) at 1 uM after 1 hr by filter-based assay.
The target of assay [5] is Histone-lysine N-methyltransferase EZH2 (Homo sapiens) (UniProt Q15910). Kind of assay: Inhibition of EZH2 trimeric complex (unknown origin) assessed as incorporation of tritium labeled methyl group from [3H]-SAM to substrate at 1 uM after 1 hr by scintillation proximity assay relative to control.
In assay [6] the target is Histone-lysine N-methyltransferase SUV39H2 (Homo sapiens) (UniProt Q9H5I1). Description: Inhibition of SUV39H2 (unknown origin) assessed as incorporation of tritium labeled methyl group from [3H]-SAM to substrate at 1 uM after 1 hr by scintillation proximity assay relative to control.
Chain of Histone-lysine N-methyltransferase SUV39H2 (Homo sapiens) (Q9H5I1 whole entry): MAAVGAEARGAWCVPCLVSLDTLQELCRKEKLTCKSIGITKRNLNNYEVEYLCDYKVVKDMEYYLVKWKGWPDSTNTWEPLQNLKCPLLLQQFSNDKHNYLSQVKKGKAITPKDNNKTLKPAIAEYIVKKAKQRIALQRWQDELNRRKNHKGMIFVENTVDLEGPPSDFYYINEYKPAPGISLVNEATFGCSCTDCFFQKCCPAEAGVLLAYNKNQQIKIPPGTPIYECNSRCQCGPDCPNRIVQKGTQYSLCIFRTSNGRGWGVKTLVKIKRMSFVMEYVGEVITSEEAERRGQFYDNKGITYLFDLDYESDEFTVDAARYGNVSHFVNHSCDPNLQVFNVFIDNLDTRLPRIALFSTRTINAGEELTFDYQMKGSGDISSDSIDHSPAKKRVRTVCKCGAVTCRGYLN
The target of assay [7] is Histone-lysine N-methyltransferase SMYD3 (Homo sapiens) (UniProt Q9H7B4). Description: Inhibition of SMYD3 (unknown origin) assessed as incorporation of tritium labeled methyl group from [3H]-SAM to substrate at 10 to 50 uM after 1 hr by scintillation proximity assay relative to control.
Chain of Histone-lysine N-methyltransferase SMYD3 (Homo sapiens) (Q9H7B4 whole entry): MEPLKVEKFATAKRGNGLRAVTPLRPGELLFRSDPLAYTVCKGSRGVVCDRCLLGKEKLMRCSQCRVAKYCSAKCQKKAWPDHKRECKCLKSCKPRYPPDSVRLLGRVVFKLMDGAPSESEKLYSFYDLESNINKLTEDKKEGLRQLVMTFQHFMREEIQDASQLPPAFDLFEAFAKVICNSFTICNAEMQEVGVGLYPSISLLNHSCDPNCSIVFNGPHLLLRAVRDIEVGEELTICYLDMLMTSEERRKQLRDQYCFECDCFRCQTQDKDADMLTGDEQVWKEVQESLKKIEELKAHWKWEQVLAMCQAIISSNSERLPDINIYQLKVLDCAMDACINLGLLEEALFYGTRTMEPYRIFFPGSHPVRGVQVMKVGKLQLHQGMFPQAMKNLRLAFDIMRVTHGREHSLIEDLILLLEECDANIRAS
Assay [8] has as its target Histone-lysine N-methyltransferase SETD2 (Homo sapiens) (UniProt Q9BYW2). Kind of assay: Inhibition of SETD2 (unknown origin) assessed as incorporation of tritium labeled methyl group from [3H]-SAM to substrate at 1 uM after 1 hr by scintillation proximity assay relative to control.
The target in assay [9] is Histone-lysine N-methyltransferase SMYD3 (Homo sapiens) (UniProt Q9H7B4). Description: Inhibition of SMYD3 (unknown origin) assessed as incorporation of tritium labeled methyl group from [3H]-SAM to substrate at 1 uM after 1 hr by scintillation proximity assay relative to control.
For assay [10], the target named is Histone-lysine N-methyltransferase NSD3 (Homo sapiens) (UniProt Q9BZ95). Kind of assay: Inhibition of NSD3 (unknown origin) at 1 uM after 1 hr by filter-based assay.
Assay [11] concerns the target Histone-lysine N-methyltransferase SUV39H2 (Homo sapiens) (UniProt Q9H5I1). Description: Inhibition of SUV39H2 (unknown origin) assessed as incorporation of tritium labeled methyl group from [3H]-SAM to substrate at 10 to 50 uM after 1 hr by scintillation proximity assay relative to control.
Assay [12] addresses Protein arginine N-methyltransferase 8 (Homo sapiens) (UniProt Q9NR22). Description: Inhibition of PRMT8 (unknown origin) assessed as incorporation of tritium labeled methyl group from [3H]-SAM to substrate at 1 uM after 1 hr by scintillation proximity assay relative to control.
Assay [13] has as its target Histone-lysine N-methyltransferase SETDB1 (Homo sapiens) (UniProt Q15047). Description: Inhibition of SETDB1 (unknown origin) assessed as incorporation of tritium labeled methyl group from [3H]-SAM to substrate at 1 uM after 1 hr by scintillation proximity assay relative to control.
Assay [14] deals with Histone-lysine N-methyltransferase 2A (Homo sapiens) (UniProt Q03164). Kind of assay: Inhibition of MLL1 trimeric complex (unknown origin) assessed as incorporation of tritium labeled methyl group from [3H]-SAM to substrate at 1 uM after 1 hr by scintillation proximity assay relative to control.
The target of assay [15] is PRMT5/MEP50 complex (Homo sapiens) (UniProt O14744+Q9BQA1). Description: Inhibition of PRMT5-MEP50 complex (unknown origin) assessed as incorporation of tritium labeled methyl group from [3H]-SAM to substrate at 1 uM after 1 hr by scintillation proximity assay relative to control. It is filed as protein-complex assay.
The target in assay [16] is N-lysine methyltransferase KMT5A (Homo sapiens) (UniProt Q9NQR1). Description: Inhibition of SETD8 (unknown origin) assessed as incorporation of tritium labeled methyl group from [3H]-SAM to substrate at 1 uM after 1 hr by scintillation proximity assay relative to control.
In assay [17] the target is Protein arginine N-methyltransferase 7 (Homo sapiens) (UniProt Q9NVM4). Kind of assay: Inhibition of PRMT7 (unknown origin) assessed as incorporation of tritium labeled methyl group from [3H]-SAM to substrate at 1 uM after 1 hr by scintillation proximity assay relative to control.
Chain of Protein arginine N-methyltransferase 7 (Homo sapiens) (Q9NVM4 whole entry): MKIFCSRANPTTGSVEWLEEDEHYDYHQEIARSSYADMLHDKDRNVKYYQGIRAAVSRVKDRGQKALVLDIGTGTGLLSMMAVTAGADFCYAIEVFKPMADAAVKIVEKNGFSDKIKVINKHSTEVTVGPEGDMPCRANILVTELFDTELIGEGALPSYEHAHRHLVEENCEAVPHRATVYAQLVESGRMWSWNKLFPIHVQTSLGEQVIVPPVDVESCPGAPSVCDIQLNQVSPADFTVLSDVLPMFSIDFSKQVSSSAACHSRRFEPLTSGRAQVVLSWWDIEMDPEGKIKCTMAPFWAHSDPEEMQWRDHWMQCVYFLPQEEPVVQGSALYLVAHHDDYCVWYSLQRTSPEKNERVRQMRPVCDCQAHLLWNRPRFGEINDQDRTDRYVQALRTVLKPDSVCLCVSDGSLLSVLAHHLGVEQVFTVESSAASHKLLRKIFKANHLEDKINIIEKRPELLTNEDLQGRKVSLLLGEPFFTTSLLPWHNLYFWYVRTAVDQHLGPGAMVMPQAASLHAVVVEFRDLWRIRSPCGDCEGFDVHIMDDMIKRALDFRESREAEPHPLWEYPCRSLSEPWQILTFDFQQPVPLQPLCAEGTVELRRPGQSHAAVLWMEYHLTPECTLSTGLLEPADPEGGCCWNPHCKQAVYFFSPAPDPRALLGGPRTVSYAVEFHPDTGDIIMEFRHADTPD
In assay [18] the target is DNMT3A2/3L complex (Homo sapiens) (UniProt Q9Y6K1+Q9UJW3). Kind of assay: Inhibition of DNMT3A/3L (unknown origin) at 1 uM after 1 hr by filter-based assay. In kind it is protein-complex assay.
The target of assay [19] is Protein N-lysine methyltransferase METTL21D (Homo sapiens) (UniProt Q9H867). Kind of assay: Inhibition of METTL21D (unknown origin) assessed as incorporation of tritium labeled methyl group from [3H]-SAM to substrate at 1 uM after 1 hr by scintillation proximity assay relative to control.
Chain of Protein N-lysine methyltransferase METTL21D (Homo sapiens) (Q9H867 whole entry): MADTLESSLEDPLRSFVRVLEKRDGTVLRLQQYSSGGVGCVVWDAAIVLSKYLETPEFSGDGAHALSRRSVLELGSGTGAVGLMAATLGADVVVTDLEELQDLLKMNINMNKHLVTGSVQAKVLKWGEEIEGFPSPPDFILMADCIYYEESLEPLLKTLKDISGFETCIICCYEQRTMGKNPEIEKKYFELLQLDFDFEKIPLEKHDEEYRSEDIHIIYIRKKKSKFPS
In assay [20] the target is Histone-lysine N-methyltransferase PRDM9 (Homo sapiens) (UniProt Q9NQV7). Kind of assay: Inhibition of PRDM9 (unknown origin) assessed as incorporation of tritium labeled methyl group from [3H]-SAM to substrate at 1 uM after 1 hr by scintillation proximity assay relative to control.
For assay [21], the target named is Histone-lysine N-methyltransferase, H3 lysine-36 specific (Homo sapiens) (UniProt Q96L73). Description: Inhibition of NSD1 (unknown origin) at 1 uM after 1 hr by filter-based assay.
Assay [22] deals with A549. Description: Effect on p53 protein level in human A549 cells at 10 uM after 18 hrs. In kind it is functional, cell-based.
The target in assay [23] is Protein arginine N-methyltransferase 3 (Homo sapiens) (UniProt O60678). Description: Inhibition of PRMT3 (unknown origin) assessed as incorporation of tritium labeled methyl group from [3H]-SAM to substrate at 1 uM after 1 hr by scintillation proximity assay relative to control.
Chain of Protein arginine N-methyltransferase 3 (Homo sapiens) (O60678 2-531 limits assumed): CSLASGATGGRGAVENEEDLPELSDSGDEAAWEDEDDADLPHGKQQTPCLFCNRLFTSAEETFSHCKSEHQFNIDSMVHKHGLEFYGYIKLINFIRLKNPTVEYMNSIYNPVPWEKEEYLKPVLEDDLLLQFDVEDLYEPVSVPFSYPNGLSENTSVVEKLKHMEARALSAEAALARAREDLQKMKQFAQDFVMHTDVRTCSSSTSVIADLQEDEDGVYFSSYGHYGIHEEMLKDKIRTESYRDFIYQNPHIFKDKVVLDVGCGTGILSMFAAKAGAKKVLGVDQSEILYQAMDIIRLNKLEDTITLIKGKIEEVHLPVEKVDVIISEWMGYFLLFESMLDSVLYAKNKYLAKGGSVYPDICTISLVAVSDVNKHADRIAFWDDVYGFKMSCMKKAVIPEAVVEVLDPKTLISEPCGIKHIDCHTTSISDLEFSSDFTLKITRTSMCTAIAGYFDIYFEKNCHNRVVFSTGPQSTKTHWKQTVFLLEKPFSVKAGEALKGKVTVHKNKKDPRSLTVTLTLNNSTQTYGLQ
Assay [24] concerns the target Protein N-lysine methyltransferase METTL21A (Homo sapiens) (UniProt Q8WXB1). Description: Inhibition of METTL21A (unknown origin) assessed as incorporation of tritium labeled methyl group from [3H]-SAM to substrate at 1 uM after 1 hr by scintillation proximity assay relative to control.
Assay [25] addresses Protein arginine N-methyltransferase 7 (Homo sapiens) (UniProt Q9NVM4). Description: Inhibition of PRMT7 (unknown origin) assessed as incorporation of tritium labeled methyl group from [3H]-SAM to substrate at 10 to 50 uM after 1 hr by scintillation proximity assay relative to control.
Assay [26] has as its target Histone-lysine N-methyltransferase EZH1 (Homo sapiens) (UniProt Q92800). Description: Inhibition of EZH1 pentameric complex (unknown origin) assessed as incorporation of tritium labeled methyl group from [3H]-SAM to substrate at 1 uM after 1 hr by scintillation proximity assay relative to control.
Assay [27] has as its target Histone-lysine N-methyltransferase EHMT2 (Homo sapiens) (UniProt Q96KQ7). Description: Inhibition of G9a (unknown origin) assessed as incorporation of tritium labeled methyl group from [3H]-SAM to substrate at 1 uM after 1 hr by scintillation proximity assay relative to control.
Assay [28] concerns the target Histone-lysine N-methyltransferase KMT5C (Homo sapiens) (UniProt Q86Y97). Kind of assay: Inhibition of SUV420H2 (unknown origin) at 1 uM after 1 hr by filter-based assay.
Assay [29] concerns the target Histone-lysine N-methyltransferase KMT5B (Homo sapiens) (UniProt Q4FZB7). Kind of assay: Inhibition of SUV420H1 (unknown origin) assessed as incorporation of tritium labeled methyl group from [3H]-SAM to substrate at 1 uM after 1 hr by scintillation proximity assay relative to control.
The target of assay [30] is Histone-lysine N-methyltransferase ASH1L (Homo sapiens) (UniProt Q9NR48). Kind of assay: Inhibition of ASH1L (unknown origin) at 1 uM after 1 hr by filter-based assay.
The target in assay [31] is DNMT3B-DNMT3L complex (Homo sapiens) (UniProt Q9UBC3+Q9UJW3). Description: Inhibition of DNMT3B/3L (unknown origin) at 1 uM after 1 hr by filter-based assay. It is filed as protein-complex assay.
In assay [32] the target is Protein arginine N-methyltransferase 1 (Homo sapiens) (UniProt Q99873). Kind of assay: Inhibition of PRMT1 (unknown origin) assessed as incorporation of tritium labeled methyl group from [3H]-SAM to substrate at 1 uM after 1 hr by scintillation proximity assay relative to control.
In assay [33] the target is Protein arginine N-methyltransferase 3 (Homo sapiens) (UniProt O60678). Description: Inhibition of PRMT3 (unknown origin) assessed as incorporation of tritium labeled methyl group from [3H]-SAM to substrate at 10 to 50 uM after 1 hr by scintillation proximity assay relative to control.
Assay [34] deals with Histone-lysine N-methyltransferase EHMT1 (Homo sapiens) (UniProt Q9H9B1). Description: Inhibition of EHMT1 (unknown origin) assessed as incorporation of tritium labeled methyl group from [3H]-SAM to substrate at 1 uM after 1 hr by scintillation proximity assay relative to control.
For assay [35], the target named is Histone-lysine N-methyltransferase NSD2 (Homo sapiens) (UniProt O96028). Description: Inhibition of NSD2 (unknown origin) at 1 uM after 1 hr by filter-based assay.
Chain of Histone-lysine N-methyltransferase NSD2 (Homo sapiens) (O96028 whole entry): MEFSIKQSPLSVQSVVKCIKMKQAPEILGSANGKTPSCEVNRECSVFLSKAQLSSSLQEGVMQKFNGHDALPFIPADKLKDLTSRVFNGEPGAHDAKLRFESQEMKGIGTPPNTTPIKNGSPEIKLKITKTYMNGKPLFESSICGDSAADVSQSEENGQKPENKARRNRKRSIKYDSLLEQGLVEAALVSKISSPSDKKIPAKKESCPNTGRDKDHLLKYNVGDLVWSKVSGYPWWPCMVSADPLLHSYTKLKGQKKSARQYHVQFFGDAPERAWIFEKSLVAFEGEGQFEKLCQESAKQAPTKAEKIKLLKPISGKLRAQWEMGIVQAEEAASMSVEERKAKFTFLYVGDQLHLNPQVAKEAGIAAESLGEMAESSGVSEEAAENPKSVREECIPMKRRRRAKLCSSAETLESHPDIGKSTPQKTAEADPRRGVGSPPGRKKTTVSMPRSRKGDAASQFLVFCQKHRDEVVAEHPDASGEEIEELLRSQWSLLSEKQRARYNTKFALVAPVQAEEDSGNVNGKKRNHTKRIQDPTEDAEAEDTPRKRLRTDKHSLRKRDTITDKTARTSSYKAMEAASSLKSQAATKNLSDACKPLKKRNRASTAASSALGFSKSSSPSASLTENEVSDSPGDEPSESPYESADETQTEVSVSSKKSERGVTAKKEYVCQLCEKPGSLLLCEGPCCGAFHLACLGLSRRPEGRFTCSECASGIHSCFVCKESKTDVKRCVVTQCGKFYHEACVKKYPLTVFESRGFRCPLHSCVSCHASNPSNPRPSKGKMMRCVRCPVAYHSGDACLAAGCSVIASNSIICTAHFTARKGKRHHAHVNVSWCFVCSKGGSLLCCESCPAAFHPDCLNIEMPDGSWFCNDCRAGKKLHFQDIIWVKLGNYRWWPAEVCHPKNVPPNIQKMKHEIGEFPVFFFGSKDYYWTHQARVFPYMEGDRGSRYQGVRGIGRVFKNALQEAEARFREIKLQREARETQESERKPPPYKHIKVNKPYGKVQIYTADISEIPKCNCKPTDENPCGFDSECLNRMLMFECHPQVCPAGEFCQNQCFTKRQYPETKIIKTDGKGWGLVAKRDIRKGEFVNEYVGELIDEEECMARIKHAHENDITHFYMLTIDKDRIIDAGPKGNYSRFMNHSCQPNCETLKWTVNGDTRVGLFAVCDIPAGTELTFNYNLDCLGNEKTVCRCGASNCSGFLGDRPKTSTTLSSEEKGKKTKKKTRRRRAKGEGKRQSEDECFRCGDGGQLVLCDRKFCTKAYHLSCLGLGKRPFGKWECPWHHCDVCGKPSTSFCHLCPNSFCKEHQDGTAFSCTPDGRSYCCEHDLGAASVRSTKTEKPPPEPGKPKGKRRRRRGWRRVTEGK
Assay [36] deals with Protein arginine N-methyltransferase 6 (Homo sapiens) (UniProt Q96LA8). Description: Inhibition of PRMT6 (unknown origin) assessed as incorporation of tritium labeled methyl group from [3H]-SAM to substrate at 1 uM after 1 hr by scintillation proximity assay relative to control.
Assay [37] concerns the target RNA 5'-monophosphate methyltransferase (Homo sapiens) (UniProt Q7Z5W3). Kind of assay: Inhibition of BCDIN3D (unknown origin) assessed as incorporation of tritium labeled methyl group from [3H]-SAM to substrate at 1 uM after 1 hr by scintillation proximity assay relative to control.
In assay [38] the target is Histone-lysine N-methyltransferase SETD7 (Homo sapiens) (UniProt Q8WTS6). Description: Inhibition of SETD7 (unknown origin) assessed as incorporation of tritium labeled methyl group from [3H]-SAM to substrate at 1 uM after 1 hr by scintillation proximity assay relative to control.

The structures appear in SMILES notation. pIC50: −log10 of the molar value. Calls of active or inactive are those of the source. The rule behind the calls is not given here.

Chain of N-lysine methyltransferase SMYD2 (Q9NRG4 whole entry): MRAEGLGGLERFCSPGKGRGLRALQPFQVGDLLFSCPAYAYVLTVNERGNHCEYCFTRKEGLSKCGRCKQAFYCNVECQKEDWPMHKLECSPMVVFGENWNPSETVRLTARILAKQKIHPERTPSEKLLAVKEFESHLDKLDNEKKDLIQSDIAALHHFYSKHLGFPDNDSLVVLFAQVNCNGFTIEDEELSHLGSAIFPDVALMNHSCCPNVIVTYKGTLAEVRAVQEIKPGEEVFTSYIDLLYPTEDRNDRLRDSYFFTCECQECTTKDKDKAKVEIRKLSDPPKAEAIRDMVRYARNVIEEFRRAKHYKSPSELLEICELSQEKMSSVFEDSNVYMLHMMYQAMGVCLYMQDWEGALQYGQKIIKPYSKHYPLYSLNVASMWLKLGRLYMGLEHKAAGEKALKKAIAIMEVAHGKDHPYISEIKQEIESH
Chain of Histone-lysine N-methyltransferase KMT5C (Homo sapiens) (Q86Y97 whole entry, looked up): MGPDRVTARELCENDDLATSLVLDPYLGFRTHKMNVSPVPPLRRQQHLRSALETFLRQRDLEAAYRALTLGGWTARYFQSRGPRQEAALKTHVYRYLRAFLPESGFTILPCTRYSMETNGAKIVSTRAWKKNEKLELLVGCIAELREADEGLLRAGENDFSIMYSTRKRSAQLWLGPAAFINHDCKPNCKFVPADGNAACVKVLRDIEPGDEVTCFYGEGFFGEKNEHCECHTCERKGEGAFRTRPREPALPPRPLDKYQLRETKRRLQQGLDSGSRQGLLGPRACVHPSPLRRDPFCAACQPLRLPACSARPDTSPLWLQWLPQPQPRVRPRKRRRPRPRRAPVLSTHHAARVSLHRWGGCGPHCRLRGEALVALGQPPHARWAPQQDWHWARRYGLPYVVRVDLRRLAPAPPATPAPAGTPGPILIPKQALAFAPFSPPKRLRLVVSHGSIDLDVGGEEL
Chain of Protein arginine N-methyltransferase 8 (Homo sapiens) (Q9NR22 2-394 limits assumed): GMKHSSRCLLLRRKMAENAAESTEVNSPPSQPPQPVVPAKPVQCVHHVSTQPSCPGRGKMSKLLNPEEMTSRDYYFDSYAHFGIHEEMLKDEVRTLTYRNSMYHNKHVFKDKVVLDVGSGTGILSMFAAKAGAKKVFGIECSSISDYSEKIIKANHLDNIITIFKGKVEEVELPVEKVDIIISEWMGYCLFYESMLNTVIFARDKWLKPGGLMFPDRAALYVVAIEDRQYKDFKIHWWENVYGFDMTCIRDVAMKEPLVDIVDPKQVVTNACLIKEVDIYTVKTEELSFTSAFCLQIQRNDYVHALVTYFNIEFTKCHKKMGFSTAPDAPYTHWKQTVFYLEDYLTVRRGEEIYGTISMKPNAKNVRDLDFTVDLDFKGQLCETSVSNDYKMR

In general, pIC50 refers to the IC50 on a negative log10 scale, so that one unit is a factor of ten. A lower pIC50 goes with a high IC50. On to `O=C1COc2c(cccc2[C@H](O)CNCCN(C(=O)CCNCCc2ccc(Cl)c(Cl)c2)C2CCCCC2)N1`, for which the pIC50 in [1] is 8.25.

Consider `O=C1COc2c(CCNCCN(C(=O)CCNCCc3ccc(Cl)c(Cl)c3)C3CCCCC3)ccc(O)c2N1`, for which, in assay [2], the “fold change (FC)” value is given as above 3. This molecule gave a pIC50 in assay [1] of 6.64.

By inhibition is commonly meant the percentage by which the read-out fell short of the control. With `O=C1COc2c(cccc2[C@@H](O)CNCCN(C(=O)CCNCCc2ccc(Cl)c(Cl)c2)C2CCCCC2)N1`, the inhibition entry in assay [3], in assay [4], in [5], in assay [6], in assay [8] and in assay [9] was “inactive” throughout. The inhibition result in assay [10], in assay [12], in assay [13], in assay [14], in [15] and in assay [16] was “inactive” throughout. Besides, the inhibition entry in [17], in assay [18], in assay [19], in [20], in assay [21] and in assay [23] was “inactive” each time. For the same molecule, the inhibition result in assay [24], in assay [26], in assay [27], in assay [28], in assay [29] and in assay [30] was “inactive” each time. Besides, the inhibition entry in assay [31], in assay [32], in [34], in assay [35], in [36] and in assay [37] was “inactive” each time. In addition, the inhibition entry in assay [38] is “inactive”. Moreover, the inhibition in [7], in assay [11], in [25] and in assay [33] was 65% in each case. For the same molecule, the result in assay [22] was inactive. Also, the pIC50 in [1] was 8.55.

In [1], `O=C(CCNCCc1ccc(Cl)c(Cl)c1)N(CCNCCCN1CCCC1)C1CCCCC1` had a negative-log IC50 (pIC50) of 5.85.

For `O=C1COc2c(CCNCCN(C(=O)CCNCCc3ccccc3)C3CCC3)ccc(O)c2N1`, the pIC50 in assay [1] is 4.59.

The molecule `O=C1COc2c(CCNCCN(C(=O)CCNCc3ccc(Cl)c(Cl)c3)C3CCCCC3)ccc(O)c2N1` gave a pIC50 in assay [1] of 5.51.

In turn, `O=C1COc2c(CCNCCN(C(=O)CCNCCc3ccccc3)C3CCCCC3)ccc(O)c2N1` gave a pIC50 in assay [1] of 6.36.

`O=C(CCNCCc1ccc(Cl)c(Cl)c1)N(CCNCCN1CCCC1)C1CCCCC1`: the pIC50 in assay [1] is 5.30. Against the preceding molecule, the pIC50 is 1.06 log units lower.

Molecule `O=C(CCNCCc1ccc(Cl)c(Cl)c1)N(CCNCCCN1CCCCC1)C1CCCCC1` showed a pIC50 in assay [1] of 5.62. This pIC50 is 0.32 log units higher than that of the molecule before.

In [1], `O=C1COc2c(CCNCCN(C(=O)CCNCCc3ccccc3)C3CCCC3)ccc(O)c2N1` had a pIC50 of 5.66.
